Test results published in US20080031868A1, “HUMAN LYSOZYME MEDICINE, ITS MANUFACTURING METHOD AND APPLICATION THEREOF” (priority 2005, published 2008).
Converted amounts (≈) assume the structure as drawn.

Assays:
[1] = system: Staphylococcus aureus MRSABAA-42; experiment: Bronchus pneumonia mice infected by Staphylococcus aureus MRSA BAA-42, treated by atomization inspiring; assay type: in vivo; conditions: mice lung; atomization inspired 6.0; the 1th day
Description: A, atomization sucks gene recombinant Human Lysozyme (HLZ) cured bronchus pneumonia mice infected by Staphylococcus aureus MRSABAA-42
Choose the test lawn, after washing with the physiological saline, correcting by McB tubes for comparative tests bacterium solution concentration 2#MCF, turbidity of 2.7×10^11 CFU/ml, diluted with physiological saline separately into 10^−1, 10^−2, 10^−3 bacterium solution, drip the nose to infect for mice respectively (anaesthetize the mice with the pentobarbital first, 30 mg/kg, ip.), 0.05 ml a mouse. Observed the mice body changing, and killed parts of mice after infecting 48 h, fetch the whole lung to tissue homogenate, 10 times diluted by physiological saline, draw 0.1 m1 to MH agar plate surface, to cultivate last night 35° C., Gram staining, test under microscope, and count plate. At the same time recorded the number of death mice, and collect some mice tracheas, bronchus, lung tissue and do pathology tissue observing.
It is called medial lethal dose (LD50) that bacterium amount caused mice appearing lung pharmacology change and 50% died. LD50was used as experimental treatment amount.
Infected mice is divided into 10 groups at random according to the weight, 30 every groups.
Designed dosage: The concentration of recombinant human lysozyme medicine was 15000 u/ml as in clinical atomization therapy. Its dose was 15000 u per time and administrated one time everyday, I.e 0.5 mg per time everyday. The dose was 1.3×10-3 mg a mice (counted by weight of 20 g). […] To ensure the breathing amount of lysozyme, the breathing time were extended for 0.5 hour. Based on 0.5 mg/ml, the concentration of 0.25 mg/ml, 1.0 mg/ml and 2.0 mg/ml were set respectively as treatment dose.
The same group mice were put into the ultrasonic atomizer and then treated with human lysozyme atomized in the compression sprayer (PARL.BOY), twice a day, 5 days in succession.
Every group, from the infected day to calculae, the animal incidence and death were recorded 14 days in succession. Every group collected 2-3 mice and killed them the 14th day after infecting, did bacteriology detection after lung homogenate, killed surplus animal to fetch the trachea, bronchus, fixed in 10% of the formaldehyde solution after weighing, did pathology check.
The bacterial culture: A part of mice were killed after infecting 24 h, fetched the whole lung weighting, added 2 ml degerming PBS solution 10 times diluted, draw 0.1 mL to MH agar plate surface, to cultivate last night 35° C., counted in the cultivation plateform of 30-300 CF, if the two close level tissue fluid is 30-300 CFU, counted the low density (make 3 plateforms at the same time each tissue fluid, calculate the average). Collected 2 mice to do bacterial culture in every group at random in 5, 7, 14 days after administration.
Pathology detection: After dissecting the mice, observed the trachea, bronchus, syncretio of lung, chest wall and membrana pleuralis, the volume of lung and size of lung focus, the lung surface was congested, hydroncus, consolidation and atelectasis by the naked eye. Took out the trachea, bronchus and the whole lung tissue to fixed with 10% of the formaldehyde solution, draw materials.

[2] = system: Staphylococcus aureus MRSABAA-42; experiment: as above; assay type: in vivo; conditions: for accumulative survival number: 30 mice; for accumulative survival number / survival rate (%): 14 days; for survival elevation rate (%): versus infected model group; for bacterial number: mice lung
[3] = 0.75 mg/ml atomization inspired

## CC[C@H]1OC(=O)[C@H](C)[C@@H](O[C@H]2C[C@@](C)(OC)[C@@H](O)[C@H](C)O2)[C@H](C)[C@@H](O[C@@H]2O[C@H](C)C[C@H](N(C)C)[C@H]2O)[C@](C)(OC)C[C@@H](C)C(=O)[C@H](C)[C@@H](O)[C@]1(C)O [Clarithromycin, reference compound]
[1]
  bacterial number: 241.9 ± 16.62 CFU/mL
[2]; [3]
  average survival day (day, x ± s): 7.67 ± 4.01 days
  accumulative survival number: 5
  survival rate (%): 16.7%
  survival elevation rate (%): 0.00%
[2]; 0.75 mg/ml atomization inspired, day 1
  Death number(piece): 0 piece
[2]; 0.75 mg/ml atomization inspired, day 2
  Death number(piece): 0 piece
[2]; 0.75 mg/ml atomization inspired, day 3
  Death number(piece): 4 piece
[2]; 0.75 mg/ml atomization inspired, day 4
  Death number(piece): 4 piece
[2]; 0.75 mg/ml atomization inspired, day 5
  Death number(piece): 3 piece
[2]; 0.75 mg/ml atomization inspired, day 6
  Death number(piece): 4 piece
[2]; 0.75 mg/ml atomization inspired, day 7
  Death number(piece): 4 piece
[2]; 0.75 mg/ml atomization inspired, day 8
  Death number(piece): 2 piece
[2]; 0.75 mg/ml atomization inspired, day 9
  Death number(piece): 3 piece
[2]; 0.75 mg/ml atomization inspired, day 10
  Death number(piece): 1 piece
[2]; 0.75 mg/ml atomization inspired, day 11
  Death number(piece): 0 piece
[2]; 0.75 mg/ml atomization inspired, day 12
  Death number(piece): 0 piece
[2]; 0.75 mg/ml atomization inspired, day 13
  Death number(piece): 0 piece
[2]; 0.75 mg/ml atomization inspired, day 14
  Death number(piece): 0 piece
[2]; 1.5 mg/ml atomization inspired
  average survival day (day, x ± s): 8.70 ± 4.65 days
  accumulative survival number: 12
  survival rate (%): 40.0%
  survival elevation rate (%): 23.3%
[2]; 1.5 mg/ml atomization inspired, day 1
  Death number(piece): 0 piece
[2]; 1.5 mg/ml atomization inspired, day 2
  Death number(piece): 0 piece
[2]; 1.5 mg/ml atomization inspired, day 3
  Death number(piece): 4 piece
[2]; 1.5 mg/ml atomization inspired, day 4
  Death number(piece): 4 piece
[2]; 1.5 mg/ml atomization inspired, day 5
  Death number(piece): 3 piece
[2]; 1.5 mg/ml atomization inspired, day 6
  Death number(piece): 4 piece
[2]; 1.5 mg/ml atomization inspired, day 7
  Death number(piece): 0 piece
[2]; 1.5 mg/ml atomization inspired, day 8
  Death number(piece): 2 piece
[2]; 1.5 mg/ml atomization inspired, day 9
  Death number(piece): 0 piece
[2]; 1.5 mg/ml atomization inspired, day 10
  Death number(piece): 1 piece
[2]; 1.5 mg/ml atomization inspired, day 11
  Death number(piece): 0 piece
[2]; 1.5 mg/ml atomization inspired, day 12
  Death number(piece): 0 piece
[2]; 1.5 mg/ml atomization inspired, day 13
  Death number(piece): 0 piece
[2]; 1.5 mg/ml atomization inspired, day 14
  Death number(piece): 0 piece
[2]; 3 mg/ml atomization inspired
  average survival day (day, x ± s): 11.20 ± 3.53 days
  accumulative survival number: 18
  survival rate (%): 60.0%
  survival elevation rate (%): 43.3%
[2]; 3 mg/ml atomization inspired, day 1
  Death number(piece): 0 piece
[2]; 3 mg/ml atomization inspired, day 2
  Death number(piece): 0 piece
[2]; 3 mg/ml atomization inspired, day 3
  Death number(piece): 0 piece
[2]; 3 mg/ml atomization inspired, day 4
  Death number(piece): 0 piece
[2]; 3 mg/ml atomization inspired, day 5
  Death number(piece): 0 piece
[2]; 3 mg/ml atomization inspired, day 6
  Death number(piece): 4 piece
[2]; 3 mg/ml atomization inspired, day 7
  Death number(piece): 4 piece
[2]; 3 mg/ml atomization inspired, day 8
  Death number(piece): 4 piece
[2]; 3 mg/ml atomization inspired, day 9
  Death number(piece): 0 piece
[2]; 3 mg/ml atomization inspired, day 10
  Death number(piece): 0 piece
[2]; 3 mg/ml atomization inspired, day 11
  Death number(piece): 0 piece
[2]; 3 mg/ml atomization inspired, day 12
  Death number(piece): 0 piece
[2]; 3 mg/ml atomization inspired, day 13
  Death number(piece): 0 piece
[2]; 3 mg/ml atomization inspired, day 14
  Death number(piece): 0 piece
[2]; 6 mg/ml atomization inspired
  average survival day (day, x ± s): 11.60 ± 3.48 days
  accumulative survival number: 20
  survival rate (%): 66.7%
  survival elevation rate (%): 50.0%
[2]; 6 mg/ml atomization inspired, day 1
  Death number(piece): 0 piece
[2]; 6 mg/ml atomization inspired, day 2
  Death number(piece): 0 piece
[2]; 6 mg/ml atomization inspired, day 3
  Death number(piece): 0 piece
[2]; 6 mg/ml atomization inspired, day 4
  Death number(piece): 0 piece
[2]; 6 mg/ml atomization inspired, day 5
  Death number(piece): 0 piece
[2]; 6 mg/ml atomization inspired, day 6
  Death number(piece): 4 piece
[2]; 6 mg/ml atomization inspired, day 7
  Death number(piece): 4 piece
[2]; 6 mg/ml atomization inspired, day 8
  Death number(piece): 2 piece
[2]; 6 mg/ml atomization inspired, day 9
  Death number(piece): 0 piece
[2]; 6 mg/ml atomization inspired, day 10
  Death number(piece): 0 piece
[2]; 6 mg/ml atomization inspired, day 11
  Death number(piece): 0 piece
[2]; 6 mg/ml atomization inspired, day 12
  Death number(piece): 0 piece
[2]; 6 mg/ml atomization inspired, day 13
  Death number(piece): 0 piece
[2]; 6 mg/ml atomization inspired, day 14
  Death number(piece): 0 piece
[2]; dose 1.5
  The 4th day (bacterial number, head incomplete): 3.4 ± 0.25
[2]; dose 1.5, the 5th day
  The 5th day (bacterial number, head incomplete): 64.40 ± 15.69
[2]; dose 3
  The 4th day (bacterial number, head incomplete): 2.5 ± 0.22
[2]; dose 3, the 5th day
  The 5th day (bacterial number, head incomplete): 60.70 ± 13.98
[2]; dose 6
  The 4th day (bacterial number, head incomplete): 2.2 ± 0.12
[2]; dose 6, the 5th day
  The 5th day (bacterial number, head incomplete): 57.60 ± 15.37
[2]; atomization inspired 1.5, 0 day
  bacterial number: 350 ± 21.5 CFU/mL
[2]; atomization inspired 1.5, the 1th day
  bacterial number: 247.10 ± 21.31 CFU/mL
[2]; atomization inspired 1.5, the 3rd day
  bacterial number: 146.90 ± 13.55 CFU/mL
[2]; atomization inspired 1.5, the 5th day
  bacterial number: 64.40 ± 15.69 CFU/mL
[2]; atomization inspired 1.5, the 14th day
  bacterial number: 28.0 ± 2.60 CFU/mL
[2]; atomization inspired 3.0, 0 day
  bacterial number: 350 ± 21.5 CFU/mL
[2]; atomization inspired 3.0, the 1th day
  bacterial number: 246.30 ± 19.03 CFU/mL
[2]; atomization inspired 3.0, the 3rd day
  bacterial number: 141.10 ± 18.54 CFU/mL
[2]; atomization inspired 3.0, the 5th day
  bacterial number: 60.70 ± 13.98 CFU/mL
[2]; atomization inspired 3.0, the 14th day
  bacterial number: 24.0 ± 2.00 CFU/mL
[2]; atomization inspired 6.0, 0 day
  bacterial number: 350 ± 21.5 CFU/mL
[2]; atomization inspired 6.0, the 3rd day
  bacterial number: 134.60 ± 13.58 CFU/mL
[2]; atomization inspired 6.0, the 5th day
  bacterial number: 57.60 ± 15.37 CFU/mL
[2]; atomization inspired 6.0, the 14th day
  bacterial number: 10.0 ± 8.00 CFU/mL
[2]; mice survival over 14 days, Bliss method
  95% feasible limits of ED50: 1760 to 4020 µg/mL
[2]; mice survival over 14 days, Bliss method, atomization inspired
  ED50 (median effective dose): 2550 µg/mL (≈ 3.41 mM)
